The text below walks through data of patent US9956168B2, “Extended release drug-delivery contact lenses and methods of making” (Mercy Medical Research Institute, priority 2013, dated 2018).

SMILES strings stand for the structures.

The experiment deals with MKP-1. The experiment is described as follows: In vitro effective dose study (Western blots for MKP-1 on HeLa cells). The note with it: HeLa cells incubated with varying concentration; extrapolated. Format: cell-based.

As for `CC(=O)OCC(=O)[C@@]1(O)CC[C@H]2[C@@H]3CCC4=CC(=O)C=C[C@]4(C)[C@H]3[C@@H](O)C[C@@]21C` [Prednisolone-21-acetate], the “in vitro effective dose” value was 5-10 ppm.
